Test results: ChEMBL document CHEMBL1201862, “PubChem BioAssay data set” (2004)
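96-well plates; 48 h exposure; 5 concentrations. Endpoints by linear interpolation between flanking doses. Not reached: highest tested concentration assigned. GI50 is the concentration that inhibits growth by half.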 Calls of active or inactive are those of the source. Rule as the data show it: active = GI50 up to about 1.1 µM and inactive = higher.

Assays:
Assay in all cases: DTP human tumour cell line panel, 48 h
[1] = system: HOP-62
[2] = system: HOP-92
[3] = system: SW-620
[4] = system: A498
[5] = system: A549
[6] = system: HCT-116
[7] = system: OVCAR-4
[8] = system: Hs-578T
[9] = system: 786-0
[10] = system: KM12
[11] = system: CCRF-CEM
[12] = system: UO-31
[13] = system: Malme-3M
[14] = system: MCF7
[15] = system: SF-268
[16] = system: TK-10
[17] = system: UACC-62
[18] = system: NCI-H226
[19] = system: UACC-257
[20] = system: SNB-19
[21] = system: U-251
[22] = system: DU-145
[23] = system: K562
[24] = system: SN12C
[25] = system: HT-29
[26] = system: MDA-N
[27] = system: SK-MEL-2
[28] = system: SK-MEL-28
[29] = system: NCI/ADR-RES
[30] = system: COLO 205
[31] = system: NCI-H23
[32] = system: NCI-H522
[33] = system: SK-MEL-5
[34] = system: EKVX
[35] = system: M14
[36] = system: LOX IMVI
[37] = system: SK-OV-3
[38] = system: BT-549
[39] = system: SF-539
[40] = system: CAKI-1
[41] = system: IGROV-1
[42] = system: ACHN
[43] = system: HCT-15
[44] = system: MOLT-4
[45] = system: PC-3
[46] = system: SF-295
[47] = system: OVCAR-3
[48] = system: OVCAR-5
[49] = system: NCI-H460
[50] = system: SNB-75
[51] = system: SR
[52] = system: T47D
[53] = system: MDA-MB-231
[54] = system: MDA-MB-435
[55] = system: HCC 2998
[56] = system: OVCAR-8
[57] = system: RPMI-8226
[58] = system: HL-60

N#CN1C2CCC1CC(=O)C2
GI50 [1]: > 100 µM (inactive) | GI50 [2]: > 100 µM (inactive) | GI50 [3]: > 100 µM (inactive) | GI50 [4]: > 100 µM (inactive) | GI50 [5]: > 100 µM (inactive) | GI50 [6]: > 100 µM (inactive) | GI50 [7]: > 100 µM (inactive) | GI50 [8]: > 100 µM (inactive) | GI50 [9]: > 100 µM (inactive) | GI50 [10]: > 100 µM (inactive) | GI50 [11]: > 100 µM (inactive) | GI50 [12]: > 100 µM (inactive) | GI50 [13]: > 100 µM (inactive) | GI50 [14]: > 100 µM (inactive) | GI50 [15]: > 100 µM (inactive) | GI50 [16]: > 100 µM (inactive) | GI50 [17]: > 100 µM (inactive) | GI50 [18]: > 10 µM (inactive) | GI50 [19]: > 100 µM (inactive) | GI50 [20]: > 100 µM (inactive) | GI50 [21]: > 100 µM (inactive) | GI50 [22]: > 100 µM (inactive) | GI50 [23]: > 100 µM (inactive) | GI50 [24]: > 100 µM (inactive) | GI50 [25]: > 100 µM (inactive) | GI50 [26]: > 100 µM (inactive) | GI50 [27]: > 100 µM (inactive) | GI50 [28]: > 100 µM (inactive) | GI50 [29]: > 100 µM (inactive) | GI50 [30]: > 100 µM (inactive) | GI50 [31]: > 100 µM (inactive) | GI50 [32]: > 100 µM (inactive) | GI50 [33]: > 100 µM (inactive) | GI50 [34]: > 100 µM (inactive) | GI50 [35]: > 100 µM (inactive) | GI50 [36]: > 100 µM (inactive) | GI50 [37]: > 100 µM (inactive) | GI50 [38]: > 100 µM (inactive) | GI50 [39]: > 100 µM (inactive) | GI50 [40]: > 100 µM (inactive) | GI50 [41]: > 100 µM (inactive) | GI50 [42]: > 100 µM (inactive) | GI50 [43]: > 100 µM | GI50 [44]: > 100 µM (inactive) | GI50 [45]: > 100 µM (inactive) | GI50 [46]: > 100 µM (inactive) | GI50 [47]: > 100 µM (inactive) | GI50 [48]: > 100 µM (inactive) | GI50 [49]: > 100 µM (inactive) | GI50 [50]: > 100 µM (inactive) | GI50 [51]: > 100 µM (inactive) | GI50 [52]: > 100 µM (inactive) | GI50 [53]: > 100 µM (inactive) | GI50 [54]: > 100 µM (inactive) | GI50 [55]: > 100 µM (inactive) | GI50 [56]: > 100 µM (inactive) | GI50 [57]: > 100 µM (inactive) | GI50 [58]: > 100 µM (inactive)
